USRE46698E1, “Use of cyclohexanol derivatives as antimicrobial active compounds” (MERCK PATENT GMBH, priority 2011, dated 2018)

Columns and labels:
Echerichia coli = assay: Antimicrobial action, microbe count (Example 6); format: cell-based; settings: H2O (12% of ethanol), count t0 6.3 × 10^4; for Δlog: t24 h
Procedure: (§1) For sample preparation, the substances being investigated are each dissolved or homogeneously dispersed in an amount of 1.0% in a water/ethanol mixture (12% of ethanol) and subsequently diluted with bacteria suspension in the ratio 1 to 2. P. acnes (ATCC 6919) is pre-incubated under anaerobic conditions for 48 h at 35° C. on RMC agar (Merck 1.05410). A bacteria suspension having an optical density (OD) of about 1.5 is subsequently prepared in RMC broth (Merck 1.05411, double-concentrated). 150 μl of freshly prepared sample and 100 μl of paraffin are added to 150 μl of bacteria suspension per well. The optical density is determined over the course of time at 37° C. using a Bioscreen C™ analyser compared with the negative control (=vehicle without test substance). Compared with the negative control, reduced optical densities confirm growth-inhibiting substance actions.
(§2) For sample preparation, the substances being investigated are each dissolved or homogeneously dispersed in an amount of 1.0% in a water/ethanol mixture (12% of ethanol) (=sample). A bacteria suspension of S. epidermidis (ATCC 12228) having an optical density of 1.0 in CASO broth (Merck 1.05459) is diluted 1:10000 with CASO broth. 500 μl of sample are added to 500 μl of bacteria suspension, and the mixture is incubated at 35° C. for 24 h. After the incubation, the test batches are diluted to −6 in 10 unit steps, and 0.1 ml of each is plated-out on CASO agar (Merck 1.05458) and incubated at 35° C. for 24 h.
(§3) In order to determine the initial microbe count, 0.1 ml of the bacteria suspension used are plated-out on CASO agar (Merck 1.05458) and incubated at 35° C. for 24 h.
(§4) The colonies are subsequently counted, and the microbe count per ml is determined compared with the negative control (12% of ethanol in water).
(§5) The procedure corresponds to that described in Examples 4 and 5 using the microorganisms shown below. The concentrations indicated are the final use concentrations. In order to prepare the stock solution, double the final concentration were prepared in the solvent indicated. This was subsequently diluted 1:2 with the corresponding microbe suspension. In the case of Aspergillus brasiliensis, the microbe count determination was exceptionally carried out after 48 h.

[1] = Rancimate assay, antioxidative capacity (Example 1); settings: 0.1% w/w in soya oil; 120° C.; input of air 201/h
Procedure: The antioxidative capacity of substances I-9, I-10 and I-2 is determined in the so-called Rancimate assay. The comparative substances used are 4-t-butyl-1-cyclohexanol and tocopherol. The positive standard employed is BHT. The measurement parameter is the time duration (induction time) of the increase in the conductivity of unstabilised soya oil on exposure to air at elevated temperature. The longer the induction time, the greater the stabilising or antioxidant action. The following boundary conditions were maintained: input of air 201/h; temperature 120° C. and sample concentrations of 0.1% w/w each in soya oil. For each test substance, a relative antioxidation-protection factor is determined, which corresponds to the ratio of the induction times with and without test substance: […]

[2] = tested on: S. epidermidis (ATCC 12228); assay: Microbe count determination, bacteriostatic or bactericidal action (Example 5); format: cell-based, Staphylococcus epidermidis; settings: 24 h at 35° C.; for Final microbe count: 1.0% sample in 12% ethanol, 500 μl + 500 μl bacteria suspension, initial count 3.8 × 10^4, negative control 5.0 × 10^7; for Note: bacteriostatic or bactericidal action: S. epidermidis
Procedure: as §2, §3, §4

P. acnes (ATCC 6919) = assay: Growth inhibition by optical density, Bioscreen C (Example 4); format: cell-based, Propionibacterium acnes; settings: 1.0% sample in water/ethanol (12% of ethanol) diluted 1 to 2 with bacteria suspension; 37° C.; negative control 1.0
Procedure: as §1
(§6) Result as optical density of the bacteria suspension after an exposure time of 20 hours: […]

[3] = tested on: S. epidermidis (ATCC 12228); assay: Growth inhibition by optical density, Bioscreen C (Example 3); format: cell-based, Staphylococcus epidermidis; settings: 1.0% sample in water/ethanol (12% of ethanol) diluted 1 to 2 with bacteria suspension, 37° C.
Procedure: For sample preparation, the substances being investigated are each dissolved or homogeneously dispersed in an amount of 1.0% in a water/ethanol mixture (12% of ethanol) and subsequently diluted with bacteria suspension in the ratio 1 to 2. S. epidermidis (ATCC 12228) is pre-incubated under aerobic conditions for 24 h at 35° C. on CASO agar (Merck 1.05458). A bacteria suspension having an optical density (OD) of about 1.0 is subsequently prepared in CASO broth (Merck 1.05459, double-concentrated) and diluted again 1:10 in CASO broth. 150 μl of freshly prepared sample are added to 150 μl of bacteria suspension per well. The optical density is determined over the course of time at 37° C. using a Bioscreen C™ analyser compared with the negative control (=vehicle without test substance). Compared with the negative control, reduced optical densities confirm growth-inhibiting substance actions
as §6

Staphylococcus aureus = assay: Antimicrobial action, microbe count (Example 6); format: cell-based; settings: conc. 0.5%, H2O (12% of ethanol), count t0 1.1 × 10^4
Procedure: as §1, §2, §3, §4, §5

Salmonella enterica = assay: Antimicrobial action, microbe count (Example 6); format: cell-based; settings: conc. 0.8%, H2O (12% of ethanol), count t0 1.3 × 10^4
Procedure: as §1, §2, §3, §4, §5

Aspergillus brasiliensis = assay: Antimicrobial action, microbe count (Example 6); format: cell-based; settings: conc. 1.0%, H2O (12% of ethanol), count t0 8.0 × 10^2
Procedure: as §1, §2, §3, §4, §5

Propionibacterium acnes = assay: Antimicrobial action, microbe count (Example 6); format: cell-based; settings: conc. 1.0%, H2O, count t0 7.8 × 10^5
Procedure: as §1, §2, §3, §4, §5

Malassezia furfur = assay: Antimicrobial action, microbe count (Example 6); format: cell-based; settings: conc. 1.0%, H2O, count t0 4.0 × 10^2
Procedure: as §1, §2, §3, §4, §5

Corynebacterium xerosis = assay: Antimicrobial action, microbe count (Example 6); format: cell-based; settings: conc. 0.5%, H2O, count t0 1.0 × 10^6
Procedure: as §1, §2, §3, §4, §5

Candida albicans = assay: Antimicrobial action, microbe count (Example 6); format: cell-based; settings: for Δlog: t24 h
Procedure: as §2, §3, §4, §5

[4] = conc. 0.5%, H2O, count t0 3.8 × 10^5
[5] = conc. 1.0%, H2O (12% of ethanol), count t0 6.0 × 10^3

Compound: COC(=O)c1ccc(O)cc1 [Methylparaben, methylparaben, reference compound]
- Microbe count t24 h (Echerichia coli; conc. 0.2%): 4.8 × 10^3
- Δlog (Echerichia coli; conc. 0.2%): −1.12

Compound: CC1CC(OC(=O)C2CCCCC2O)CC(C)(C)C1 (stereo not shown) [Substance I-10, 2-hydroxycyclohexanecarboxylic acid 3,3,5-trimethylcyclohexyl ester]
- Antioxidation-protection factor (ratio of the induction times with and without test substance) [1]: 1.14
- Final microbe count [2]: 2.0 × 10^3 CFU/ml
- Note: bacteriostatic or bactericidal action [2]: bacteriostatic
- OD20h, optical density of the bacteria suspension after 20 hours (P. acnes (ATCC 6919)): 0.45
- OD20h, optical density of the bacteria suspension after 20 hours ([3]; 1st experiment, negative control 0.80): 0.30

Compound: CCCCOC(=O)C1CCC(O)CC1 (stereo not shown) [Substance I-20, 4-hydroxycyclohexanecarboxylic acid butyl ester]
- Microbe count t24 h (Echerichia coli; conc. 0.8%): 0
- Δlog (Echerichia coli; conc. 0.8%): −4.80
- Microbe count t24 h (Staphylococcus aureus): 0
- Δlog (Staphylococcus aureus; t24 h): −4.04
- Microbe count t24 h (Salmonella enterica): 0
- Δlog (Salmonella enterica; t24 h): −4.11
- Δlog (Aspergillus brasiliensis; count after 48 h): −0.60
- Microbe count t24 h (Aspergillus brasiliensis; count carried out after 48 h): 2.0 × 10^2
- Microbe count t24 h (Propionibacterium acnes): 1.3 × 10^4
- Δlog (Propionibacterium acnes; t24 h): −1.78
- Microbe count t24 h (Malassezia furfur): 0
- Δlog (Malassezia furfur; t24 h): −2.60
- Microbe count t24 h (Corynebacterium xerosis): 0
- Δlog (Corynebacterium xerosis; t24 h): −6.00
- Final microbe count [2]: 0 CFU/ml
- Note: bacteriostatic or bactericidal action [2]: bactericidal
- OD20h, optical density of the bacteria suspension after 20 hours (P. acnes (ATCC 6919)): 0.70
- Microbe count t24 h (Candida albicans; [4]): 0
- Δlog (Candida albicans; [4]): −5.58
- Microbe count t24 h (Candida albicans; [5]): 0
- Δlog (Candida albicans; [5]): −3.78
- OD20h, optical density of the bacteria suspension after 20 hours ([3]; 2nd experiment, negative control 0.65): 0.20

Compound: tocopherol [reference compound]
- Antioxidation-protection factor (ratio of the induction times with and without test substance) [1]: 1.00

Compound: CC(C)(C)C1CCC(O)CC1 (stereo not shown) [4-t-butyl-1-cyclohexanol, reference compound]
- Antioxidation-protection factor (ratio of the induction times with and without test substance) [1]: 1.05
